The source of these data is paper PMC4592935, “Application of Molecular Modeling to Development of New Factor Xa Inhibitors” (BioMed Research International, 2015).

One series has as its target T1, Human factor Xa (Homo sapiens, UniProt P00742).
T1 construct: It consists of light (139 residues) and heavy (303 residues) chains linked by a disulfide bridge; purchased Hematologic Technologies Inc. (USA)
The series can be described thus: Inhibition of factor Xa hydrolysis of chromogenic substrate S2765 in buffer. Format: biochemical. Conditions: for IC50 / Inhibition of hydrolysis rate specific to the factor Xa substrate in the buffer system IC50: substrate S2765 250 μM, Xa 0.5 nM, 20 mM HEPES pH 8.0; for IC50: read-out: Inhibition of hydrolysis rate specific to the factor Xa substrate in the buffer system IC50; for inhibitory activity against factor Xa (in words): in vitro, chromogenic substrate hydrolysis. The protocol: Human factor Xa was obtained from Hematologic Technologies Inc. (USA). The Xa-specific chromogenic substrate S2765 (Z-D-Arg-Gly-Arg-pNA·2HCl) was purchased from Chromogenix (USA). All other chemicals were of reagent and analytical grade.
The kinetics of factor Xa inhibition was determined from the hydrolysis reaction of a specific substrate by the enzyme in the presence of tested substances. The chromogenic substrate S2765 (Z-D-Arg-Gly-Arg-pNA·2HCl, Chromogenix, Instrumentation Laboratory Company, Lexington, MA 02421, USA) was used for registering accumulation of p-nitroaniline as a colored product by spectrophotometer.
Plate wells were filled with 20 mM HEPES (pH 8.0) containing 140 mM NaCl and 0.1% polyethylene glycol (molecular weight 6000 Da). Thereafter, the substrate was sequentially added to each well (final concentration, 250 μM), followed by the substance being tested (to a final concentration that was varied) and Xa (final concentration, 0.5 nM). The hydrolysis rate was monitored spectrophotometrically at 405 nm (absorption maximum of the reaction product p-nitroaniline).
The initial rate was determined as the slope of the linear part of the kinetic curve over the first 10 to 20 min of measurement. The inhibitory effect was expressed as the percentage of reduction of the initial hydrolysis rate. The reaction rate in the absence of any inhibitor was taken as 100%. Each result is the mean of two parallel determinations. The inhibitor concentration was determined decreasing hydrolysis rate to 50% (IC50). […] Graphs of optical density against time were plotted.

Series [1] in a line: Solubility as observed during factor Xa testing. Format: physicochemical. To be noted: limited the inhibition that could be achieved. From the text:
According to the results of our molecular modeling with SOL and DISCORE programs 17 compounds have been selected and investigated in the frame of in vitro experiments.

T1 sequence (P00742 235-488 limits assumed): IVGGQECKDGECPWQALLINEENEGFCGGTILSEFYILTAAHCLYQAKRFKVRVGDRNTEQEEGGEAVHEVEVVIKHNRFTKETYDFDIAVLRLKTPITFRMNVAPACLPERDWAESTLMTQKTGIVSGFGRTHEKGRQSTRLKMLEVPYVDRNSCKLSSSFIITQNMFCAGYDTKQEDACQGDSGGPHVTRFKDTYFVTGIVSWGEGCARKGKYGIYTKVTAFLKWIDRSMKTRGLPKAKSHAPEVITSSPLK
T1 sequence (P00742 41-179 partner limits assumed): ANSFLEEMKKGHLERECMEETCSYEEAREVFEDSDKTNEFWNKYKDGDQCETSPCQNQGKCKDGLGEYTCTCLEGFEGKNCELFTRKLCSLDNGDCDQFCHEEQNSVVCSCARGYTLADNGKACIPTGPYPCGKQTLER

As to `O=C1CC(c2cccc(Cl)c2)Cc2nc(N3CCN(Cc4ccc5c(c4)OCO5)CC3)ncc21` (stereo not drawn) [VGY-0037972], the IC50 (in general, the concentration needed to halve the response being measured) at Human factor Xa is 5 µM. Turning to `COc1ccc(C2CC(=O)c3cnc(Nc4nc(C)c5cc(C)c(C)cc5n4)nc3C2)cc1` (stereo not drawn) [VGY-0035262, 7-(4-methoxyphenyl)-2-[(4,6,7-trimethylquinazolin-2-yl)amino]-7,8-dihydroquinazolin-5(6H)-one], the IC50 at Human factor Xa was 3.1 µM. On the same count and under the same terms, in the case of `Clc1ccc2nc(Nc3nc(-c4ccccc4)c4ccccc4n3)nc(-c3ccccc3)c2c1` [VGY-0018863] it was 10 µM.

With `O=C1CC(c2ccco2)Cc2nc(N3CCN(Cc4ccc5c(c4)OCO5)CC3)ncc21` (stereo not drawn) [VGY-0038035], the “solubility (in words)” value in series [1] is listed as “poor solubility”. Testing at 51 µM against Human factor Xa (at concentration of 51 μM) gave an inhibition of 34%. Also, at Human factor Xa, the “inhibitory activity against factor Xa (in words)” value (“inhibitory activity” below) is reported as “weakly inhibited” and the “Inhibition of hydrolysis rate specific to the factor Xa substrate in the buffer system IC50” value (shortened to “Inhibition of hydrolysis rate specific”) was “Weakly inhibited”. In the case of `Cc1cc2nc(Nc3ncc4c(n3)CC(c3cccs3)CC4=O)nc(C)c2cc1C` (stereo not drawn) [VGY-0037900], at Human factor Xa, the IC50 was 10 µM.

Consider `CN1CCN(C2CC(=O)N(c3ccc(Oc4ccccc4)cc3)C2=O)CC1` (stereo not drawn) [VGY-0017263], for which, on Human factor Xa, the “inhibitory activity” value is given as “did not show any inhibitory activity” and the “Inhibition of hydrolysis rate specific” value is “Not inhibited”. `CCOc1ccc(N2CN(CCCN3CCOCC3)Cn3c2nc(C)c(C)c3=O)cc1` [VGY-0160076]: on Human factor Xa, the “inhibitory activity” value was “did not show any inhibitory activity” and the “Inhibition of hydrolysis rate specific” value is on record as “Not inhibited”. Turning to `CC1=CC(C)(C)N2C(=O)C(=C3SC(=S)NC3=O)c3cc(OC(=O)C=Cc4cccc([N+](=O)[O-])c4)cc1c32` [VGY-0018989, 4,4,6-trimethyl-2-oxo-1-(4-oxo-2-thioxo-1,3-thiazolidin-5-ylidene)-1,2-dihydro-4H-pyrrolo[3,2,1-ij]quinolin-8-yl-3-(3-nitrophenyl)prop-2-enoate], the IC50 on Human factor Xa was found to be 1.8 µM. Consider `Cc1nc(N2CCN(C)CC2)[nH]c(=O)c1Cc1ccc(C(C)C)cc1` [VGY-0039772], for which, at Human factor Xa, the “inhibitory activity” value is listed as “did not show any inhibitory activity” and the “Inhibition of hydrolysis rate specific” value is given as “Not inhibited”. On the same counts, the results for `Cc1ccc(C)c(N2C(=O)CC(N3CCN(Cc4ccc5c(c4)OCO5)CC3)C2=O)c1` (stereo not drawn) [VGY-0015091] are “did not show any inhibitory activity” and “Not inhibited”. In the case of `COc1cccc(NC(=O)c2nnc3c(-c4ccc(Br)cc4)c(C)nn3c2C)c1` [VGY-0101011, 8-(4-bromophenyl)-N-(3-methoxyphenyl)-4,7-dimethylpyrazolo[5,1-c][1,2,4]triazine-3-carboxamide], the IC50 at Human factor Xa was 2 µM. On to “6-[(1,3-benzothiazol-2-ylthio)methyl]-2-[(5,6-dimethylquinazolin-2-yl)amino]pyrimidin-4(3H)-one [VGY-0006889]”, for which the IC50 at Human factor Xa is 2.3 µM. Still for that read-out and setting: to `CC1(c2ccc(Cl)cc2)CC(C)(C)N2C(=O)/C(=N/c3ccc(Oc4ccccc4)cc3)c3cccc1c32` (stereo not drawn) [VGY-0027889] belongs 20.6 µM; to `COc1cc2c3c(c1)-c1c(sn(-c4ccc(Oc5ccc(Cl)cc5)cc4)c1=S)C(C)(C)N3C(=O)C2=O` [VGY-0018521], 6.3 µM; to `CC1CC2(CCCC2)N2C(=O)C3(NCCc4c3[nH]c3ccccc43)c3cc(F)cc1c32` (stereo not drawn) [VGY-0041455], 40 µM. Same read-out and setting: in the case of `Cc1ccc2nc(Nc3nc(-c4cnc(N5CCCCC5)nc4C)cc(=O)[nH]3)nc(C)c2c1` [VGY-0163641] it was 12 µM. On the same count and under the same terms, in the case of `CC1(c2ccc(Cl)cc2)CC(C)(C)N(C(=O)CSc2ccc(Cl)cc2)c2ccccc21` (stereo not drawn) [VGY-0016013] it was 19 µM.
